Experimental data: the supplement of paper PMC4862054

Assays:
Assay in all cases: normalised viability (% of control), CellTiter-Blue; higher = more viable cells (about 100 = DMSO control)
Settings in all cases: incubation time: 72 h
BT-549 [1] = tested on: BT-549
Description: (§1)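 DSRT, CellTiter-Blue viability, 72 h incubation. Signal is normalised to DMSO and benzethonium chloride controls. Value is the normalised response at dose 3.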

CAL-120 [2] = tested on: CAL-120
Description: as §1

DU-4475 [3] = tested on: DU-4475
Description: as §1

HCC1937 [4] = tested on: HCC1937
Description: as §1

HDQ-P1 [5] = tested on: HDQ-P1
Description: as §1

MDA-MB-231 [6] = tested on: MDA-MB-231
Description: as §1

MDA-MB-468 [7] = tested on: MDA-MB-468
Description: as §1

SK-BR-3 [8] = tested on: SK-BR-3
Description: as §1

BT-474 = tested on: BT-474
Procedure, shortened: (§2)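 Breast cancer cell lines in 20 µl suspension were seeded onto 384-well plates pre-loaded with compound dissolved in 5 µl medium, then incubated 72 h. CellTiter-Blue reagent (2.5 µl) was added for 2 h at 37 °C and fluorescence read at 560/590 nm. Each plate was normalised to vehicle (100) and a positive kill control (0), with Z'-factor quality control. The value is normalised viability at one listed concentration of the series.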

BT-549 [9] = tested on: BT-549; remark: listed apart in the source
Procedure, shortened: as §2

CAL-120 [10] = tested on: CAL-120; remark: listed apart in the source
Procedure, shortened: as §2

CAL-148 = tested on: CAL-148
Procedure, shortened: as §2

CAL-51 = tested on: CAL-51
Procedure, shortened: as §2

CAL-85-1 = tested on: CAL-85-1
Procedure, shortened: as §2

DU-4475 [11] = tested on: DU-4475; remark: listed apart in the source
Procedure, shortened: as §2

HCC1143 = tested on: HCC1143
Procedure, shortened: as §2

HCC1599 = tested on: HCC1599
Procedure, shortened: as §2

HCC1937 [12] = tested on: HCC1937; remark: listed apart in the source
Procedure, shortened: as §2

HDQ-P1 [13] = tested on: HDQ-P1; remark: listed apart in the source
Procedure, shortened: as §2

Hs578T = tested on: Hs578T
Procedure, shortened: as §2

MDA-MB-231 [14] = tested on: MDA-MB-231; remark: listed apart in the source
Procedure, shortened: as §2

MDA-MB-436 = tested on: MDA-MB-436
Procedure, shortened: as §2

MDA-MB-453 = tested on: MDA-MB-453
Procedure, shortened: as §2

MDA-MB-468 [15] = tested on: MDA-MB-468; remark: listed apart in the source
Procedure, shortened: as §2

MFM-223 = tested on: MFM-223
Procedure, shortened: as §2

SK-BR-3 [16] = tested on: SK-BR-3; remark: listed apart in the source
Procedure, shortened: as §2

COc1cccc2c1C(=O)c1c(O)c3c(c(O)c1C2=O)C[C@@](O)(C(=O)CO)C[C@@H]3O[C@H]1C[C@H](N)[C@H](O)[C@H](C)O1 [Doxorubicin]
normalised viability (BT-549 [1]; 10 nM): 98.9%
normalised viability (CAL-120 [2]; 10 nM): 84.6%
normalised viability (DU-4475 [3]; 1 nM): 103%
normalised viability (HCC1937 [4]; 10 nM): 98.9%
normalised viability (HDQ-P1 [5]; 1 nM): 108%
normalised viability (MDA-MB-231 [6]; 10 nM): 78.6%
normalised viability (MDA-MB-468 [7]; 10 nM): 98.8%
normalised viability (SK-BR-3 [8]; 10 nM): 75.6%
normalised viability (BT-474; 1 nM): 97.3%
normalised viability (BT-474; 100 nM): 84.7%
normalised viability (BT-474; 1000 nM): 34.1%
normalised viability (BT-549 [9]; 1 nM): 114%
normalised viability (BT-549 [9]; 100 nM): 76.5%
normalised viability (BT-549 [9]; 1000 nM): 5.36%
normalised viability (CAL-120 [10]; 1 nM): 96.2%
normalised viability (CAL-120 [10]; 100 nM): 52.6%
normalised viability (CAL-120 [10]; 1000 nM): 6.93%
normalised viability (CAL-148; 0.3 nM): 86.5%
normalised viability (CAL-148; 3 nM): 93%
normalised viability (CAL-148; 10 nM): 73.6%
normalised viability (CAL-51; 0.3 nM): 102%
normalised viability (CAL-51; 3 nM): 100%
normalised viability (CAL-51; 10 nM): 96.2%
normalised viability (CAL-85-1; 0.3 nM): 90%
normalised viability (CAL-85-1; 3 nM): 92.3%
normalised viability (CAL-85-1; 10 nM): 90.4%
normalised viability (DU-4475 [11]; 0.3 nM): 93.8%
normalised viability (DU-4475 [11]; 3 nM): 91.6%
normalised viability (DU-4475 [11]; 10 nM): 64%
normalised viability (HCC1143; 1 nM): 101%
normalised viability (HCC1143; 100 nM): 60.2%
normalised viability (HCC1143; 1000 nM): 32.2%
normalised viability (HCC1599; 1 nM): 93%
normalised viability (HCC1599; 100 nM): 74.8%
normalised viability (HCC1599; 1000 nM): 59%
normalised viability (HCC1937 [12]; 1 nM): 86.6%
normalised viability (HCC1937 [12]; 100 nM): 37%
normalised viability (HCC1937 [12]; 1000 nM): 22.2%
normalised viability (HDQ-P1 [13]; 0.3 nM): 104%
normalised viability (HDQ-P1 [13]; 3 nM): 96.8%
normalised viability (HDQ-P1 [13]; 10 nM): 93%
normalised viability (Hs578T; 1 nM): 115%
normalised viability (Hs578T; 100 nM): 71.3%
normalised viability (Hs578T; 1000 nM): 6.05%
normalised viability (MDA-MB-231 [14]; 1 nM): 85.1%
normalised viability (MDA-MB-231 [14]; 100 nM): 64.4%
normalised viability (MDA-MB-231 [14]; 1000 nM): 25.8%
normalised viability (MDA-MB-436; 1 nM): 90.6%
normalised viability (MDA-MB-436; 100 nM): 64.5%
normalised viability (MDA-MB-436; 1000 nM): 18.2%
normalised viability (MDA-MB-453; 0.3 nM): 105%
normalised viability (MDA-MB-453; 3 nM): 102%
normalised viability (MDA-MB-453; 10 nM): 101%
normalised viability (MDA-MB-468 [15]; 1 nM): 99.7%
normalised viability (MDA-MB-468 [15]; 100 nM): 65.9%
normalised viability (MDA-MB-468 [15]; 1000 nM): 4.32%
normalised viability (MFM-223; 1 nM): 91.8%
normalised viability (MFM-223; 100 nM): 98%
normalised viability (MFM-223; 1000 nM): 21.4%
normalised viability (SK-BR-3 [16]; 1 nM): 87.9%
normalised viability (SK-BR-3 [16]; 100 nM): 41.3%
normalised viability (SK-BR-3 [16]; 1000 nM): 8.28%

Clc1ccc(C(c2ccccc2Cl)C(Cl)Cl)cc1 (centres undefined) [Mitotane]
normalised viability (BT-549 [1]; 100 nM): 98.5%
normalised viability (CAL-120 [2]; 100 nM): 86.3%
normalised viability (DU-4475 [3]; 10 nM): 98.6%
normalised viability (HCC1937 [4]; 100 nM): 95.6%
normalised viability (HDQ-P1 [5]; 10 nM): 99.1%
normalised viability (MDA-MB-231 [6]; 100 nM): 91.7%
normalised viability (MDA-MB-468 [7]; 100 nM): 98.8%
normalised viability (SK-BR-3 [8]; 100 nM): 112%
normalised viability (BT-474; 10 nM): 118%
normalised viability (BT-474; 1000 nM): 108%
normalised viability (BT-474; 10000 nM): 130%
normalised viability (BT-549 [9]; 10 nM): 83%
normalised viability (BT-549 [9]; 1000 nM): 93%
normalised viability (BT-549 [9]; 10000 nM): 102%
normalised viability (CAL-120 [10]; 10 nM): 80.8%
normalised viability (CAL-120 [10]; 1000 nM): 87.8%
normalised viability (CAL-120 [10]; 10000 nM): 86%
normalised viability (CAL-148; 3 nM): 89.2%
normalised viability (CAL-148; 30 nM): 94.2%
normalised viability (CAL-148; 100 nM): 95.7%
normalised viability (CAL-51; 3 nM): 117%
normalised viability (CAL-51; 30 nM): 106%
normalised viability (CAL-51; 100 nM): 107%
normalised viability (CAL-85-1; 3 nM): 92.6%
normalised viability (CAL-85-1; 30 nM): 86.2%
normalised viability (CAL-85-1; 100 nM): 101%
normalised viability (DU-4475 [11]; 3 nM): 109%
normalised viability (DU-4475 [11]; 30 nM): 87.5%
normalised viability (DU-4475 [11]; 100 nM): 93.9%
normalised viability (HCC1143; 10 nM): 82.9%
normalised viability (HCC1143; 1000 nM): 81.2%
normalised viability (HCC1143; 10000 nM): 91.4%
normalised viability (HCC1599; 10 nM): 97%
normalised viability (HCC1599; 1000 nM): 88.2%
normalised viability (HCC1599; 10000 nM): 97.1%
normalised viability (HCC1937 [12]; 10 nM): 79.9%
normalised viability (HCC1937 [12]; 1000 nM): 91.1%
normalised viability (HCC1937 [12]; 10000 nM): 79.4%
normalised viability (HDQ-P1 [13]; 3 nM): 117%
normalised viability (HDQ-P1 [13]; 30 nM): 102%
normalised viability (HDQ-P1 [13]; 100 nM): 100%
normalised viability (Hs578T; 10 nM): 96.6%
normalised viability (Hs578T; 1000 nM): 86.7%
normalised viability (Hs578T; 10000 nM): 107%
normalised viability (MDA-MB-231 [14]; 10 nM): 85.4%
normalised viability (MDA-MB-231 [14]; 1000 nM): 94.8%
normalised viability (MDA-MB-231 [14]; 10000 nM): 119%
normalised viability (MDA-MB-436; 10 nM): 88.9%
normalised viability (MDA-MB-436; 1000 nM): 106%
normalised viability (MDA-MB-436; 10000 nM): 90.9%
normalised viability (MDA-MB-453; 3 nM): 117%
normalised viability (MDA-MB-453; 30 nM): 94.6%
normalised viability (MDA-MB-453; 100 nM): 103%
normalised viability (MDA-MB-468 [15]; 10 nM): 108%
normalised viability (MDA-MB-468 [15]; 1000 nM): 102%
normalised viability (MDA-MB-468 [15]; 10000 nM): 102%
normalised viability (MFM-223; 10 nM): 90.3%
normalised viability (MFM-223; 1000 nM): 96%
normalised viability (MFM-223; 10000 nM): 87.9%
normalised viability (SK-BR-3 [16]; 10 nM): 105%
normalised viability (SK-BR-3 [16]; 1000 nM): 104%
normalised viability (SK-BR-3 [16]; 10000 nM): 82.3%
